Biological target: Human CARM1 (PRMT4) (Homo sapiens (Human), UniProt Q86X55)
Assay: CARM1 enzyme assay on peptide substrate (3H-SAM Flashplate)
Details: Biochemical potencies, classification codes; read-out: Biochem IC50

Human CARM1 (PRMT4), sequence (Q86X55 other isoform, or with tags, fused parts or gaps isoform Q86X55-1): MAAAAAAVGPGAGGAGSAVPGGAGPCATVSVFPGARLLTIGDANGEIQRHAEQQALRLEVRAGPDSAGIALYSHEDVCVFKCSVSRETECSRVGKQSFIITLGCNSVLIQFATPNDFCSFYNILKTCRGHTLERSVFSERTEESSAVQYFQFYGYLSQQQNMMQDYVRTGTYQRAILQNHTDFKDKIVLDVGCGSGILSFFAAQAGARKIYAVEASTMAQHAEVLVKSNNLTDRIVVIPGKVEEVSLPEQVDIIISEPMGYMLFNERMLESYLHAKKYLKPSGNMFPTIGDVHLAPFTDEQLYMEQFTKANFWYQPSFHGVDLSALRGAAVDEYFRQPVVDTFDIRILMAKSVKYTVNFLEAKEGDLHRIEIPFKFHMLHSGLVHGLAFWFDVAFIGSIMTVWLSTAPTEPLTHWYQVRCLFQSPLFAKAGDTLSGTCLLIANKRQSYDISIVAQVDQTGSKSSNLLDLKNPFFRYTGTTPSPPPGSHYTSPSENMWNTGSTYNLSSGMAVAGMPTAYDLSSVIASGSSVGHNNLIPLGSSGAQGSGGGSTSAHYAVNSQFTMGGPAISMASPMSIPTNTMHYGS

| IC50 [µM] | SMILES |
| --- | --- |
| < 0.1 | CNC[C@@H](O)COc1cccc(-c2nc(N[C@@H]3CCN(C4CC4)C[C@@H]3F)c(Cl)c(-c3c(C)noc3C)n2)c1 [Example 68-3] |
| < 0.1 | CNC[C@H](O)COc1ccc(Cl)c(-c2nc(-c3c(C)noc3C)cc(N3CC4(CCN(C5CC5)CC4)C3)n2)c1 [Example 69-3] |
| < 0.1 | CNCC(O)COc1cc(Cl)cc(-c2nc(-c3ccn4cnnc4c3)c(C)c(N(C)C3CCOCC3)n2)c1 (stereo not shown) [Example 70-1] |
| < 0.1 | CCS(=O)(=O)N1CCC(Nc2nc(-c3cccc(OCC(O)CNC)c3)nc(-c3c(C)nsc3C)c2C)CC1 (stereo not shown) [Example 70-3] |
| < 0.1 | CNCC(O)COc1cccc(-c2nc(NCCCN3CCCC3=O)cc(-c3ccc(C(F)(F)F)nc3)n2)c1 (stereo not shown) [Example 71-1] |
| < 0.1 | CCS(=O)(=O)N1CCOC[C@@H]1CNc1nc(-c2cccc(OCC(O)CNC)c2)nc(-c2c(C)nsc2C)c1C (stereo partly shown) [Example 71-3] |
| < 0.1 | CNC[C@H](O)COc1ccc(F)c(-c2nc(NC3CCOCC3)c(C)c(-c3c(C)noc3C)n2)c1 [Example 72-3] |
| < 0.1 | CNC[C@H](O)COc1ccc(F)c(-c2nc(NC3CCOC(C)C3)c(C)c(-c3c(C)noc3C)n2)c1 (stereo partly shown) [Example 73-3] |
| < 0.1 | CNC[C@H](O)COc1ccc(Cl)c(-c2nc(-c3c(C)noc3C)c(C)c(N3CCN(C)C(C(F)F)C3)n2)c1 (stereo partly shown) [Example 74-3] |
| < 0.1 | CNC[C@H](O)COc1ccc(Cl)c(-c2nc(-c3c(C)noc3C)c(C)c(N3CCC4(CC3)CN(S(C)(=O)=O)C4)n2)c1 [Example 75-3] |
| < 0.1 | CNC[C@H](O)COc1ccc(F)c(-c2nc(-c3c(C)noc3C)c(C)c(N3CCC4(CC3)CN(S(C)(=O)=O)C4)n2)c1 [Example 76-3] |
| < 0.1 | CCN1CCC[C@@H]1CNc1nc(-c2cc(OC[C@@H](O)CNC)ccc2Cl)nc(-c2c(C)noc2C)c1C [Example 77-3] |
| < 0.1 | CNC[C@H](O)COc1ccc(Cl)c(-c2nc(NCCC(C)(C)OC)c(C)c(-c3c(C)noc3C)n2)c1 [Example 82-3] |
| < 0.1 | CNC[C@H](O)COc1ccc(F)c(-c2nc(NCCC(C)(C)OC)c(C)c(-c3c(C)noc3C)n2)c1 [Example 83-3] |
| < 0.1 | CNC[C@H](O)COc1ccc(F)c(-c2nc(-c3c(C)noc3C)c(C)c(N3CCC4(CC3)CN(C(=O)OC)C4)n2)c1 [Example 84-3] |
| < 0.1 | CNC[C@H](O)COc1ccc(Cl)c(-c2nc(-c3c(C)noc3C)c(C)c(N3CCC4(CC3)CN(C(=O)OC)C4)n2)c1 [Example 85-3] |
| < 0.1 | CNC[C@H](O)COc1ccc(Cl)c(-c2nc(-c3c(C)noc3C)c(C)c(N3Cc4cc(F)cnc4C3)n2)c1 [Example 86-3] |
| < 0.1 | CNC[C@H](O)COc1ccc(Cl)c(-c2nc(-c3c(C)noc3C)c(C)c(N3Cc4cc(Cl)cnc4C3)n2)c1 [Example 87-3] |
| < 0.1 | CCOC(=O)N1CCC(Nc2nc(-c3cc(OC[C@H](O)CNC)ccc3Cl)nc(-c3c(C)noc3C)c2C)CC1 [Example 88-3] |
| < 0.1 | CNC[C@H](O)COc1ccc(Cl)c(-c2nc(NC3CCN(C(=O)OC)CC3)c(C)c(-c3c(C)noc3C)n2)c1 [Example 89-3] |
| < 0.1 | CNC[C@H](O)COc1ccc(Cl)c(-c2nc(-c3c(C)noc3C)c(C)c(N3Cc4ccncc4C3)n2)c1 [Example 90-3] |
| < 0.1 | CNC[C@H](O)COc1ccc(F)c(-c2nc(-c3c(C)noc3C)c(C)c(N3Cc4cccnc4C3)n2)c1 [Example 91-3] |
| < 0.1 | CNC[C@H](O)COc1ccc(Cl)c(-c2nc(-c3c(C)noc3C)c(C)c(N3Cc4cccnc4C3)n2)c1 [Example 92-3] |
| < 0.1 | CCOC(=O)N1CCOC[C@@H]1CNc1nc(-c2cc(OCC(O)CNC)ccc2Cl)nc(-c2c(C)nsc2C)c1C (stereo partly shown) [Example 93-3] |
| < 0.1 | CNC[C@H](O)COc1ccc(Cl)c(-c2nc(N[C@@H]3CCOC3)c(C)c(-c3c(C)noc3C)n2)c1 [Example 94-3] |

Second part, the compound before the results:

| SMILES | IC50 [µM] |
| --- | --- |
| CNCC(O)COc1cccc(-c2nc(-c3c(C)noc3C)cc(N3CC[C@H](S(C)(=O)=O)C3)n2)c1 (stereo partly shown) [Example 69-1a] | < 0.1 |
| CNCC(O)COc1cccc(-c2nc(-c3c(C)noc3C)cc(N3CCN(C(C)=O)C4(CC4)C3)n2)c1 (stereo not shown) [Example 70-1a] | < 0.1 |
| CNCC(O)COc1cccc(-c2nc(-c3c(C)noc3C)c(C)c(N3CC[C@H](N(C)C(C)=O)C3)n2)c1 (stereo partly shown) [Example 71-1a] | < 0.1 |
| CNCC(O)COc1cccc(-c2nc(Nc3cnc(OC)nc3)cc(-c3c(C)noc3C)n2)c1 (stereo not shown) [Example 72-1a] | < 0.1 |
| CNCC(O)COc1cc(N)cc(-c2nc(NC3CCOCC3)c(C)c(-c3c(C)noc3C)n2)c1 (stereo not shown) [Example 74-1a] | < 0.1 |
| CNCC(O)COc1cc(OC)cc(-c2nc(NC3CCOCC3)c(C)c(-c3c(C)noc3C)n2)c1 (stereo not shown) [Example 75-1a] | < 0.1 |
| CNCC(O)COc1cc(O)cc(-c2nc(NC3CCOCC3)c(C)c(-c3c(C)noc3C)n2)c1 (stereo not shown) [Example 76-1a] | < 0.1 |
| CCOC(=O)N1CCN(c2nc(-c3cccc(OCC(O)CNC)c3)nc(-c3c(C)noc3C)c2C)CC1 (stereo not shown) [Example 77-1a] | < 0.1 |
| CNCC(O)COc1cccc(-c2nc(NCC3CCOCC3)cc(-c3c(C)noc3C)n2)c1 (stereo not shown) [Example 78-1a] | < 0.1 |
| CNCC(O)COc1cccc(-c2nc(-c3c(C)noc3C)cc(N3CCN(CC(F)F)CC3)n2)c1 (stereo not shown) [Example 79-1a] | < 0.1 |
| CNCC(O)COc1cccc(-c2nc(-c3c(C)noc3C)cc(N3C[C@@H]4C[C@H]3CN4S(C)(=O)=O)n2)c1 (stereo partly shown) [Example 80-1a] | < 0.1 |
| CNCC(O)COc1cccc(-c2nc(-c3c(C)noc3C)cc(N3CCN(C(=O)OC)CC3)n2)c1 (stereo not shown) [Example 81-1a] | < 0.1 |
| CNCC(O)COc1cccc(-c2nc(-c3c(C)noc3C)c(C)c(N3C[C@@H]4C[C@H]3CN4C)n2)c1 (stereo partly shown) [Example 84-1a] | < 0.1 |
| CNCC(O)COc1cccc(-c2nc(NC3(C)CCOCC3)cc(-c3c(C)noc3C)n2)c1 (stereo not shown) [Example 85-1a] | < 0.1 |
| CNCC(O)COc1cccc(-c2nc(-c3c(C)noc3C)c(C)c(N(C)CC3CCOCC3)n2)c1 (stereo not shown) [Example 86-1a] | < 0.1 |
| CNCC(O)COc1cccc(-c2nc(-c3c(C)noc3C)cc(N(C)CC3CCOCC3)n2)c1 (stereo not shown) [Example 87-1a] | < 0.1 |
| CNCC(O)COc1cccc(-c2nc(NCC3CCOCC3)c(C)c(-c3c(C)noc3C)n2)c1 (stereo not shown) [Example 88-1a] | < 0.1 |
| CNCC(O)COc1cccc(-c2nc(-c3c(C)noc3C)c(C)c(N(C)C3CCN(C(=O)OC)CC3)n2)c1 (stereo not shown) [Example 89-1a] | < 0.1 |
| CNCC(O)COc1cccc(-c2nc(-c3c(C)noc3C)cc(N(C)C3CCN(C(=O)OC)CC3)n2)c1 (stereo not shown) [Example 90-1a] | < 0.1 |
| CNCC(O)COc1cccc(-c2nc(-c3c(C)noc3C)cc(N3CCN(C(=O)N(C)C)[C@@H](C)C3)n2)c1 (stereo partly shown) [Example 91-1a] | < 0.1 |
| CNCC(O)COc1cccc(-c2nc(-c3c(C)noc3C)cc(N3CCN(S(C)(=O)=O)[C@@H](C)C3)n2)c1 (stereo partly shown) [Example 92-1a] | < 0.1 |
| CNCC(O)COc1cccc(-c2nc(-c3c(C)noc3C)cc(N3CCN(C)[C@@H](C)C3)n2)c1 (stereo partly shown) [Example 93-1a] | < 0.1 |
| CNCC(O)COc1cccc(-c2nc(-c3c(C)noc3C)cc(N3C[C@@H]4C[C@H]3CN4C(=O)OC)n2)c1 (stereo partly shown) [Example 94-1a] | < 0.1 |
| CNCC(O)COc1cccc(-c2nc(-c3c(C)noc3C)cc(N3C[C@@H]4C[C@H]3CN4C(C)=O)n2)c1 (stereo partly shown) [Example 95-1a] | < 0.1 |
